Where a name gives a salt, the structure may show the parent alone.

System in the first data set: not given
Test: not given
Details: not given
For the compound `CC(C)c1cc(C(C)C)c(CSC(=N)N)cc1CSC(=N)N` (as salt: hydrobromid) [Example 3.1, (4,6-diisopropyl-1,3-phenylene)bis(methylene)dicarbamimidothioate dihydrobromide], the melting point lay within 208 to 210 °C. Same read-out and setting: under `Cc1cc(CSC(=N)N)cc(CSC(=N)N)c1` (as salt: hydrobromid) [Example 3.3, (5-methyl-1,3-phenylene)bis(methylene)dicarbamimidothioate dihydrobromide] stands 240 to 241 °C.

The next data set concerns the target T1, DMT1 (Homo sapiens, UniProt P49281).
T1 sequence (P49281 1-568): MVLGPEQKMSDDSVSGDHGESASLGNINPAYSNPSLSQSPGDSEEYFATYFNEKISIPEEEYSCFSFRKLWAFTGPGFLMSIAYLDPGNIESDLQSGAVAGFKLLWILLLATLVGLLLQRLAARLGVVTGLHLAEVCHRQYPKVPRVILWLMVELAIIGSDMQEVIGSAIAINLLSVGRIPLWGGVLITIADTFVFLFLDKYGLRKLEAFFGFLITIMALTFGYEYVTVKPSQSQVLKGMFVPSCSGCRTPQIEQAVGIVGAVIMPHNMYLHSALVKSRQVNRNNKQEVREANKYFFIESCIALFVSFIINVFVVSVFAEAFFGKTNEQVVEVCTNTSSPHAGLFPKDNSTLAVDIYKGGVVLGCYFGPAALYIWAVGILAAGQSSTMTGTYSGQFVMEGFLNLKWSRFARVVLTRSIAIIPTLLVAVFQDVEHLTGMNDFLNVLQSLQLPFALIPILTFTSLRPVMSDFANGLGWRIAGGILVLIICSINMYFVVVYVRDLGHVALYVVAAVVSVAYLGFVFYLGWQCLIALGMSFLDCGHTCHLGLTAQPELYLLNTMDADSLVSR
Kind of data set: DMT1 activity assay (IC50 activity level, Table 1). The format is cell-based. The following applies: inhibition of DMT1. An excerpt: This example discloses various in vitro assay for testing and profiling test agents against DMT1 stably expressed in cells of either an endogenous or recombinant origin. These assays can use stable cell lines overexpressing DMT1 or intestinal cells and intestinal tissue expressing endogenous DMT1. DMT1 function could also be assessed in other cell types that express DMT1. Of greatest relevance would be the erythrocytes (e.g. K562 cells) or hepatocytes (e.g. […]).
DMT1 function can be assessed in a number of ways, including monitoring fluorescence changes of an iron fluorophore (e.g. calcein), monitoring uptake of radiolabelled iron (^55Fe or ^59Fe) (Picard et al., J. Biol. Chem., 2000, 275(46):35738-45 and Wetli et al., Chem. Biol. 2006 September; 13(9):965-72), or by assessing the current or transport of iron and other metals into the cells or tissues using standard electrophysiological techniques (Gunshin et al., Nature, 1997, 388(6641):482-8.).
Variations of these assays involve alterations of incubation times, the iron status of the cells and tissues (which may be modulated by chemical chelators or by harvesting from iron deficient animals), the metal cation detected and the pH of the reaction can generally be made by conventional techniques known to those skilled in the art.
The Example numbers provided in Table 1 correspond to the Examples herein: […]
Turning to `Cc1cc(C)c(CNC(=N)N)c(C)c1CNC(=N)N` [Example 1, N-(3-guanidinomethyl-2,4,6-trimethylbenzyl)guanidine, bis(p-toluenesulfonate)], the 50% inhibitory concentration (IC50) was not below 1000 nM.

The compound `Cc1cc(C)c(CSC(=N)N)c(C)c1CSC(=N)N` [Example 3, (2,4,6-trimethyl-1,3-phenylene)bis(methylene)dicarbamimidothioate dihydrochloride] registered an IC50 of 100 to 1000 nM.

`CC(C)c1cc(C(C)C)c(CSC(=N)N)cc1CSC(=N)N` [Example 3.1, (4,6-diisopropyl-1,3-phenylene)bis(methylene)dicarbamimidothioate dihydrobromide] gave an IC50 not below 1000 nM. `N=C(N)SCc1cccc(CSC(=N)N)c1` [Example 3.2, 1,3-phenylenebis(methylene)dicarbamimidothioate dihydrobromide] showed a half-maximal inhibitory concentration (IC50) not below 1000 nM. Take `Cc1cc(CSC(=N)N)cc(CSC(=N)N)c1` [Example 3.3, (5-methyl-1,3-phenylene)bis(methylene)dicarbamimidothioate dihydrobromide]: the IC50 was not below 1000 nM. On the same count and under the same terms, under `CCOC(=O)c1cc(C(=O)OCC)c(CSC(=N)N)cc1CSC(=N)N` [Example 3.4, diethyl 4,6-bis(carbamimidoylthiomethyl)isophthalate dihydrobromide] stands not below 1000 nM. For `Cc1c(C)c(CSC(=N)N)c(C)c(CSC(=N)N)c1C` [Example 3.5, (2,4,5,6-tetramethyl-1,3-phenylene)bis(methylene)dicarbamimidothioate dihydrochloride], the IC50 is not below 1000 nM. For `N=C(N)SCc1c(Cl)c(Cl)c(Cl)c(CSC(=N)N)c1Cl` [Example 3.6, (2,4,5,6-tetrachloro-1,3-phenylene)bis(methylene)dicarbamimidothioate dihydrochloride], the IC50 was not below 1000 nM. Same read-out and setting: the same measure for `N=C(N)SCc1nnc(CSC(=N)N)n1N` [Example 3.7, (4-amino-4H-1,2,4-triazole-3,5-diyl)bis(methylene)dicarbamimidothioate dihydrochloride]: not below 1000 nM. The same measure, in the same setting: the same measure for `N=C(N)SCc1n[nH]c(CSC(=N)N)n1` [Example 3.8, (1H-1,2,4-triazole-3,5-diyl)bis(methylene)dicarbamimidothiodate dihydrochloride]: not below 1000 nM; for `N=C(N)SCc1ccc(CSC(=N)N)s1` [Example 3.9, thiophene-2,5-diylbis(methylene)dicarbamimidothioate dihydrochloride]: not below 1000 nM.

In the case of `N=C(N)SCc1sc(CSC(=N)N)c(-c2ccccc2)c1-c1ccccc1` [Example 3.10, (3,4-diphenylthiophene-2,5-diyl)bis(methylene)dicarbamimidothioate dihydrobromide], the 50% inhibitory concentration (IC50) was not below 1000 nM. `Cc1c(CSC(=N)N)c(C)c(CSC(=N)N)c(C)c1CSC(=N)N` [Example 3.11, (2,4,6-trimethylbenzene-1,3,5-triyl)tris(methylene) tricarbamimidothioate trihydrobromide] registered an IC50 not below 1000 nM. In the case of `N=C(N)SCc1cccc(CSC(=N)N)n1` [Example 3.12, pyridine-2,6-diylbis(methylene)dicarbamimidothioate dihydrobromide], the half-maximal inhibitory concentration (IC50) was not below 1000 nM.

In turn, `N=C(N)SCc1cccc2cccc(CSC(=N)N)c12` [Example 3.13, naphthalene-1,8-diylbis(methylene)dicarbamimidothioate dihydrobromide] displayed an IC50 not below 1000 nM. In turn, `N#Cc1c(CSC(=N)N)cccc1CSC(=N)N` [Example 3.14, (2-cyano-1,3-phenylene)bis(methylene)dicarbamimidothioate dihydrobromide] registered an IC50 not below 1000 nM. For the compound `N=C(N)SCc1ccccc1CSC(=N)N` [Example 3.15, (1,2-phenylene)bis(methylene)dicarbamimidothioate dihydrobromide], the IC50 is not below 1000 nM. For the compound `Cc1cc(C)c(CSC(=N)N)cc1CSC(=N)N` [Example 3.16, (4,6-dimethyl-1,3-phenylene)bis(methylene)dicarbamimidothioate dihydrochloride], the IC50 lay in the range of 100 to 1000 nM.

Turning to `Cc1c(CSC(=N)N)cc(CSC(=N)N)c(C)c1Br` [Example 3.17, (5-bromo-4,6-dimethyl-1,3-phenylene)bis(methylene) dicarbamimidothioate dihydrochloride], the IC50 is not below 1000 nM. Still for that read-out and setting: the same measure for `COc1c(CSC(=N)N)cc(C)cc1CSC(=N)N` [Example 3.18, (2-methoxy-5-methyl-1,3-phenylene)bis(methylene)dicarbamimidothioate dihydrobromide]: not below 1000 nM. Still for that read-out and setting: the same measure for `Cc1c(O)c(C)c(CSC(=N)N)c(C)c1CSC(=N)N` [Example 3.19, (5-hydroxy-2,4,6-trimethyl-1,3-phenylene)bis(methylene) dicarbamimidothioate dihydrochloride]: 100 to 1000 nM; for `N=C(N)SCc1ccc2ccccc2c1CSC(=N)N` [Example 3.20, naphthalene-1,2-diylbis(methylene)dicarbamimidothioate dihydrobromide]: not below 1000 nM; for `Cc1c(CSC(=N)N)cccc1CSC(=N)N` [Example 3.21, (2-methyl-1,3-phenylene)bis(methylene)dicarbamimidothioate dihydrobromide]: 100 to 1000 nM. Still for that read-out and setting: under `Cc1c(C)c(C)c(CSC(=N)N)c(CSC(=N)N)c1C` [Example 3.22, (3,4,5,6-tetramethyl-1,2-phenylene)bis(methylene)dicarbamimidothioate dihydrobromide] stands not below 1000 nM; under `N=C(N)Sc1cccc(SC(=N)N)c1` [Example 5, 1,3-phenylene dicarbamimidothioate dihydroiodide], not below 1000 nM; under `CC(C)(SC(=N)N)c1cccc(C(C)(C)SC(=N)N)c1` [Example 6, 2-{1-[3-(1-carbamimidoylsulfanyl-1-methylethyl)phenyl]-1-methylethyl}-isothiourea dihydrobromide], not below 1000 nM. `Cc1cc(C)c(C(C)SC(=N)N)c(C)c1C(C)SC(=N)N` (stereo not drawn) [Example 6.1, 2-{1-[3-(1-carbamimidoylsulfanylethyl)-2,4,6-trimethylphenyl]ethyl}-isothiourea dihydrobromide] displayed a half-maximal inhibitory concentration (IC50) of 100 to 1000 nM. Consider `Cc1cc(CSC(=N)N)c(O)c(CSC(=N)N)c1` [Example 6.2, (2-hydroxy-5-methyl-1,3-phenylene)bis(methylene)dicarbamimidothioate dihydrobromide], for which the IC50 is not below 1000 nM. The same measure, in the same setting: the same measure for `Cc1c(CSC(=N)N)sc(CSC(=N)N)c1C` [Example 6.3, (3,4-dimethylthiophene-2,5-diyl)bis(methylene)dicarbamimidothioate dihydrobromide]: not below 1000 nM; for `Cc1c(CSC(=N)N)sc2sc(CSC(=N)N)c(C)c12` [Example 6.4, (3,4-dimethylthieno[2,3-b]thiophene-2,5-diyl)bis(methylene)dicarbamimidothioate dihydrobromide]: not below 1000 nM; for `COc1ccc(CSC(=N)N)cc1CSC(=N)N` [Example 6.5, (4-methoxy-1,3-phenylene)bis(methylene)dicarbamimidothioate dihydrobromide]: not below 1000 nM. Same read-out and setting: under `COc1cc(CSC(=N)N)cc(CSC(=N)N)c1` [Example 6.6, (5-methoxy-1,3-phenylene)bis(methylene)dicarbamimidothioate dihydrobromide] stands not below 1000 nM; under `Cc1nc(C)c(CSC(=N)N)c(C)c1CSC(=N)N` [Example 8, (2,4,6-trimethylpyridine-3,5-diyl)bis(methylene)dicarbamimidothioate dihydrochloride], not below 1000 nM. Still for that read-out and setting: under `N=C(N)SC(=O)c1sc(C(=O)SC(=N)N)c(Cl)c1Cl` [Example 9, 2-(5-carbamimidoylsulfanecarbonyl-3,4-dichlorothiophene-2-carbonyl)isothiourea dihydrochloride] stands not below 1000 nM.

The values above are taken from patent publication US20100240713A1, “AROMATIC AND HETEROAROMATIC COMPOUNDS USEFUL IN TREATING IRON DISORDERS” (XENON PHARMACEUTICALS INC., priority 2007, published 2010).
